This note sets out measurements from PubChem BioAssay (NCI).

Molecules are shown by their SMILES.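 Cells were grown in 96-well plates and exposed to each compound for 48 hours at five concentrations; endpoints were interpolated linearly between bracketing concentrations, or set to the highest concentration if not reached. GI50 = concentration required for 50% inhibition of growth. TGI: total growth inhibition.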 Some results are limits rather than exact numbers.

Some test systems named below: CAKI-1 renal; COLO 205 colon; HCT-116 colon; HL-60(TB) leukemia; HOP-62 NSCLC; KM12 colon; NCI-H226 lung; SNB-75 CNS; U251 CNS; HS 578T breast.
Assay in all cases: NCI tumour cell line growth inhibition, 48 h

For the compound `CN(CCNC(=O)c1nn(C)c2c1Cc1ccccc1-2)CCNC(=O)c1nn(C)c2c1Cc1ccccc1-2`, the TGI with CAKI-1 renal amounted to 47.4 µM; in the experiment with COLO 205 colon, 24.8 µM; in the experiment with HCT-116 colon, 28.9 µM; with HL-60(TB) leukemia, 29 µM; in the experiment with HOP-62 NSCLC, 34.2 µM; in the experiment with KM12 colon, 43.7 µM. The figures for the TGI with NCI-H226 lung, in the experiment with SNB-75 CNS and in the experiment with U251 CNS were 34.5 µM, 28.4 µM and 28.9 µM, respectively.

For `C[N+]1(CC[N+]2(C)CCCC2c2cccnc2)CCCC1c1cccnc1` (centres undefined), the TGI in the experiment with CAKI-1 renal, in the experiment with COLO 205 colon, with HCT-116 colon, with HOP-62 NSCLC, in the experiment with HS 578T breast and in the experiment with KM12 colon was more than 100 µM each time. Moreover, the TGI in the experiment with SNB-75 CNS and with U251 CNS was more than 100 µM each time.

In the case of `c1c2c(cc3c1OCO3)-c1ncc3cc4c(cc3c1C2)OCO4`, the GI50 in the experiment on CAKI-1 renal was less than 0.0154 µM; in the experiment on COLO 205 colon it was less than 0.0354 µM; in the experiment with HCT-116 colon, less than 0.0305 µM; with HL-60(TB) leukemia, 0.0713 µM; in the experiment on HOP-62 NSCLC, 0.112 µM; in the experiment on NCI-H226 lung it was 8.8 µM. Besides, the GI50 in the experiment on U251 CNS is less than 0.0369 µM. For the same compound, the TGI was 2.14 µM in the experiment with CAKI-1 renal; more than 61.2 µM with HCT-116 colon; more than 100 µM in the experiment with HL-60(TB) leukemia; 27.5 µM with HOP-62 NSCLC; more than 94.8 µM with HS 578T breast; more than 100 µM with NCI-H226 lung. Also, in the experiment on U251 CNS, the TGI stood at 26.9 µM.

For `CCN(CC)C(=O)N[C@@H](CC(C)C)C(=O)NC`, the TGI in the experiment on CAKI-1 renal, in the experiment with COLO 205 colon, with HCT-116 colon, in the experiment with HL-60(TB) leukemia, in the experiment on HOP-62 NSCLC and in the experiment with HS 578T breast was more than 100 µM in each case. Also, the TGI in the experiment on KM12 colon, with SNB-75 CNS and in the experiment on U251 CNS was more than 100 µM throughout.

`O=[N+]([O-])c1ccc(CSC2=C(c3ccc(Cl)cc3)S/C(=C3\SC(SCc4ccc([N+](=O)[O-])cc4)=C(c4ccc(Cl)cc4)S3)S2)cc1`: the TGI in the experiment with CAKI-1 renal, in the experiment with COLO 205 colon, in the experiment with HCT-116 colon, in the experiment on HOP-62 NSCLC, in the experiment on HS 578T breast and with KM12 colon was more than 100 µM in each case. For the same compound, the TGI in the experiment on NCI-H226 lung and in the experiment with U251 CNS was more than 100 µM in each case.

Take `CC(=O)N(C(=O)CC(=O)N1N=C(C)C(N=Nc2cccc([N+](=O)[O-])c2)C1=O)c1ccc(Cl)cc1` (centres undefined): the TGI in the experiment on CAKI-1 renal, in the experiment on COLO 205 colon, in the experiment with HCT-116 colon, in the experiment on HL-60(TB) leukemia, in the experiment with HOP-62 NSCLC and in the experiment on HS 578T breast was more than 10 µM in each case. The TGI in the experiment with KM12 colon, with SNB-75 CNS and with U251 CNS was more than 10 µM in each case.

As to `CC[C@@]1(O)C(=O)OCc2c1cc1n(c2=O)Cc2c-1nc1ccc(N)cc1c2CC[Si](C)(C)C`, the TGI is 0.197 µM in the experiment with COLO 205 colon; 2.01 µM in the experiment on HCT-116 colon; less than 0.01 µM with HL-60(TB) leukemia; 0.368 µM with HOP-62 NSCLC; 27.3 µM in the experiment on HS 578T breast; 3.68 µM in the experiment with KM12 colon. In addition, the TGI was less than 0.01 µM in the experiment on NCI-H226 lung and 0.543 µM in the experiment on U251 CNS.

For `Cc1ccc([N+](=O)[O-])cc1S(=O)(=O)Nc1ccc(C2=NN(S(=O)(=O)c3cc([N+](=O)[O-])ccc3C)C(c3ccccc3O)C2)cc1` (centres undefined), the TGI in the experiment on CAKI-1 renal, with COLO 205 colon, with HCT-116 colon, in the experiment with HL-60(TB) leukemia, with HOP-62 NSCLC and in the experiment on KM12 colon was more than 100 µM each time. For the same compound, the TGI with NCI-H226 lung, with SNB-75 CNS and with U251 CNS was more than 100 µM each time.

For `O=C(NCC(O)COc1ccccc1)c1ccccc1O` (centres undefined), the TGI with CAKI-1 renal, with COLO 205 colon, in the experiment with HCT-116 colon, in the experiment on HOP-62 NSCLC, in the experiment with KM12 colon and in the experiment with NCI-H226 lung was more than 100 µM throughout. For the same compound, the TGI in the experiment with U251 CNS was more than 100 µM.

As for `CC(=O)OC1CCC2(C)C(CCC3C2CCC2(C)C(c4ccc(=O)oc4)C(OC(C)=O)CC32O)C1` (centres undefined), the TGI in the experiment on CAKI-1 renal came to 0.0194 µM; in the experiment with COLO 205 colon, 0.162 µM; in the experiment with HCT-116 colon, 0.036 µM; with HL-60(TB) leukemia it was 0.114 µM; with HOP-62 NSCLC, 0.0331 µM; with KM12 colon, 0.161 µM. Also, the TGI in the experiment with NCI-H226 lung came out at 0.288 µM; in the experiment with SNB-75 CNS, 0.0801 µM; in the experiment with U251 CNS, 0.137 µM.

For the compound `O=S(c1ccc(O)cc1)c1ccc(O)cc1`, the TGI in the experiment on CAKI-1 renal, in the experiment on COLO 205 colon, with HCT-116 colon, in the experiment with HL-60(TB) leukemia, in the experiment on HOP-62 NSCLC and in the experiment on KM12 colon was more than 100 µM throughout. Besides, the TGI in the experiment with NCI-H226 lung, in the experiment on SNB-75 CNS and in the experiment with U251 CNS was more than 100 µM in each case.

Consider `CC/C(CC(=O)CCC(=O)Nc1ccc(C)c(C)c1)=N\NC(=O)c1cc2ccccc2cc1O`, for which the TGI is more than 100 µM in the experiment with CAKI-1 renal; more than 100 µM with COLO 205 colon; more than 100 µM in the experiment with HCT-116 colon; 8.68 µM in the experiment with HL-60(TB) leukemia; more than 100 µM with HOP-62 NSCLC; more than 100 µM with KM12 colon. Besides, the TGI in the experiment with NCI-H226 lung and with U251 CNS was more than 100 µM each time.

Take `Cc1cc2nc3c(N)nn(CCCN(C)C)c3nc2cc1C`: the TGI with CAKI-1 renal, with COLO 205 colon, with HCT-116 colon, in the experiment with HOP-62 NSCLC, in the experiment on HS 578T breast and in the experiment on KM12 colon was more than 100 µM in each case. The TGI with SNB-75 CNS and in the experiment with U251 CNS was more than 100 µM each time.

On to `COc1cc2c(cc1C)NC(=O)/C2=C/c1c(Cl)[nH]c2ccccc12`, for which the TGI is 24.7 µM in the experiment on CAKI-1 renal; 13.1 µM in the experiment on COLO 205 colon; 17 µM in the experiment on HCT-116 colon; 7.37 µM in the experiment on HL-60(TB) leukemia; 14.6 µM with HOP-62 NSCLC; 28.7 µM in the experiment with HS 578T breast. For the same compound, the figures for the TGI in the experiment on KM12 colon, in the experiment with SNB-75 CNS and with U251 CNS were 16.9 µM, 21.7 µM and 16.9 µM, respectively.
